# Test results from US10721934B2, “Enhanced preservative” (Arch Chemicals, Inc., priority 2013, dated 2020).
# Columns and labels:
# Type in all cases: cell-based
# Aureobasidium pullulans = assay: MIC test, 96 well microtiter plate; conditions: single chemical
# Procedure: (§1) MIC set up: A 96 well microtiter plate Minimum Inhibitory Concentration (MIC) test was run in broth suitable for the test organism. Serially diluted actives were prepared in sterilized water, and the start-up concentration varied depending on the efficacy range. Inocula prepared in 2× suitable broth was added into each well, and the final concentrations of bacteria were adjusted to approximately 5×10^5.
# (§2) Further MIC tests were conducted using different amine compounds in combination with a pyrithione and two different isothiazolinones. The procedures described in Example No. 1 were used.
# Staphylococcus aureus = assay: MIC test, 96 well microtiter plate; conditions: single chemical
# Procedure: as §1, §2
# Candida albicans = assay: MIC test, 96 well microtiter plate; conditions: single chemical
# Procedure: as §1, §2
# Aspergillus brasiliensis = assay: MIC test, 96 well microtiter plate; conditions: single chemical
# Procedure: as §1, §2
# Escherichia coli = assay: MIC test, 96 well microtiter plate; conditions: single chemical
# Procedure: as §1, §2
# [1] = system: Pseudomonas aeruginosa ATCC 15442; assay: Minimum Inhibitory Concentration (MIC) test, 96 well microtiter plate; conditions: for biocide enhancing effect on zinc pyrithione: MIC of blends with ZnPT, Table 1; for MIC: Pseudomonas aeruginosa, ATCC15442, single chemical
# Procedure: Microorganisms: Pseudomonas aeruginosa ATCC 15442
# as §1
# [2] = system: mixed bacterial inoculum (Pseudomonas aeruginosa, Enterobacter cloacae, Escherichia coli, Acinetobacter calcoaceticus); assay: Repeated inoculation of standard acrylic paint, streak plate rating
# Procedure: In the following experiments, a pyrithione, an isothiazolinone, and a biocide enhancing agent in accordance with the present disclosure were combined with a standard acrylic paint. The concentrations of the pyrithione, the isothiazolinone and the biocide enhancing agent were varied. The pyrithione, the isothiazolinone and the biocide enhancing agent were added alone and in various mixtures to the standard acrylic paint.
# The acrylic paint was then inoculated three times using a mixed bacterial inoculum. The bacterial inoculum, which comprised a bacterial suspension in water, contained the following four bacteria in equal proportions.
# The samples were streak plated at 24, 48, and 72 hours after inoculation. The streak plates were rated as follows;
structure (smiles),measurement,setting,value
CCCCn1sc2ccccc2c1=O [BBIT],Minimum Inhibitory Concentration,Aureobasidium pullulans,2.5 ppm
same,Minimum Inhibitory Concentration,Staphylococcus aureus,5.0 ppm
same,Minimum Inhibitory Concentration,Candida albicans,3.75 ppm
same,Minimum Inhibitory Concentration,Aspergillus brasiliensis,1.9 ppm
same,Minimum Inhibitory Concentration,Escherichia coli,80.0 ppm
"CCCCCCCCCCCCN [DDA, 1-dodecylamine]",biocide enhancing effect on the isothiazolin,"[1]; MIC of blends with BIT, Table 2",had an enhancing effect on the isothiazolin
same,biocide enhancing effect on zinc pyrithione,[1],enhance the effectiveness of the zinc pyrithione
same,MIC,[1],200 µg/mL
same,streak plate rating,"[2]; Set Four, DDA 600 ppm, 1st inoculation 24 h",5 (>45 viable microorganisms Severely contaminated)
same,streak plate rating,"[2]; Set Four, DDA 600 ppm, 1st inoculation 48 h",2 (6-15 viable microorganisms Lightly contaminated)
same,streak plate rating,"[2]; Set Four, DDA 600 ppm, 1st inoculation 72 h",0
same,streak plate rating,"[2]; Set Four, DDA 600 ppm, 2nd inoculation 24 h",5 (>45 viable microorganisms Severely contaminated)
same,streak plate rating,"[2]; Set Four, DDA 600 ppm, 2nd inoculation 48 h",5 (>45 viable microorganisms Severely contaminated)
same,streak plate rating,"[2]; Set Four, DDA 600 ppm, 2nd inoculation 72 h",5 (>45 viable microorganisms Severely contaminated)
same,streak plate rating,"[2]; Set Four, DDA 600 ppm, 3rd inoculation 24 h",5 (>45 viable microorganisms Severely contaminated)
same,streak plate rating,"[2]; Set Four, DDA 600 ppm, 3rd inoculation 48 h",5 (>45 viable microorganisms Severely contaminated)
same,streak plate rating,"[2]; Set Four, DDA 600 ppm, 3rd inoculation 72 h",5 (>45 viable microorganisms Severely contaminated)
same,streak plate rating,"[2]; Set One, DDA 600 ppm, 1st inoculation 24 h",5 (>45 viable microorganisms Severely contaminated)
same,streak plate rating,"[2]; Set One, DDA 600 ppm, 1st inoculation 48 h",5 (>45 viable microorganisms Severely contaminated)
same,streak plate rating,"[2]; Set One, DDA 600 ppm, 1st inoculation 72 h",5 (>45 viable microorganisms Severely contaminated)
same,streak plate rating,"[2]; Set One, DDA 600 ppm, 2nd inoculation 24 h",5 (>45 viable microorganisms Severely contaminated)
same,streak plate rating,"[2]; Set One, DDA 600 ppm, 2nd inoculation 48 h",5 (>45 viable microorganisms Severely contaminated)
same,streak plate rating,"[2]; Set One, DDA 600 ppm, 3rd inoculation 24 h",5 (>45 viable microorganisms Severely contaminated)
same,streak plate rating,"[2]; Set One, DDA 600 ppm, 3rd inoculation 48 h",5 (>45 viable microorganisms Severely contaminated)
same,streak plate rating,"[2]; Set One, DDA 600 ppm, 3rd inoculation 72 h",5 (>45 viable microorganisms Severely contaminated)
same,streak plate rating,"[2]; Set One, DDA 900 ppm, 1st inoculation 24 h",5 (>45 viable microorganisms Severely contaminated)
same,streak plate rating,"[2]; Set One, DDA 900 ppm, 1st inoculation 48 h",5 (>45 viable microorganisms Severely contaminated)
same,streak plate rating,"[2]; Set One, DDA 900 ppm, 1st inoculation 72 h",5 (>45 viable microorganisms Severely contaminated)
same,streak plate rating,"[2]; Set One, DDA 900 ppm, 2nd inoculation 24 h",5 (>45 viable microorganisms Severely contaminated)
same,streak plate rating,"[2]; Set One, DDA 900 ppm, 2nd inoculation 48 h",5 (>45 viable microorganisms Severely contaminated)
same,streak plate rating,"[2]; Set One, DDA 900 ppm, 3rd inoculation 24 h",5 (>45 viable microorganisms Severely contaminated)
same,streak plate rating,"[2]; Set One, DDA 900 ppm, 3rd inoculation 48 h",5 (>45 viable microorganisms Severely contaminated)
same,streak plate rating,"[2]; Set One, DDA 900 ppm, 3rd inoculation 72 h",5 (>45 viable microorganisms Severely contaminated)
same,streak plate rating,"[2]; Set One, DDA 1200 ppm, 1st inoculation 24 h",5 (>45 viable microorganisms Severely contaminated)
same,streak plate rating,"[2]; Set One, DDA 1200 ppm, 1st inoculation 48 h",5 (>45 viable microorganisms Severely contaminated)
same,streak plate rating,"[2]; Set One, DDA 1200 ppm, 1st inoculation 72 h",5 (>45 viable microorganisms Severely contaminated)
same,streak plate rating,"[2]; Set One, DDA 1200 ppm, 2nd inoculation 24 h",5 (>45 viable microorganisms Severely contaminated)
same,streak plate rating,"[2]; Set One, DDA 1200 ppm, 2nd inoculation 48 h",5 (>45 viable microorganisms Severely contaminated)
same,streak plate rating,"[2]; Set One, DDA 1200 ppm, 3rd inoculation 24 h",5 (>45 viable microorganisms Severely contaminated)
same,streak plate rating,"[2]; Set One, DDA 1200 ppm, 3rd inoculation 48 h",5 (>45 viable microorganisms Severely contaminated)
same,streak plate rating,"[2]; Set One, DDA 1200 ppm, 3rd inoculation 72 h",5 (>45 viable microorganisms Severely contaminated)
same,streak plate rating,"[2]; Set One, DDA 1800 ppm, 1st inoculation 24 h",2 (6-15 viable microorganisms Lightly contaminated)
same,streak plate rating,"[2]; Set One, DDA 1800 ppm, 1st inoculation 48 h",3 (16-30 viable microorganisms Moderately contaminated)
same,streak plate rating,"[2]; Set One, DDA 1800 ppm, 1st inoculation 72 h",1 (1-5 viable microorganisms Very lightly contaminated)
same,streak plate rating,"[2]; Set One, DDA 1800 ppm, 2nd inoculation 24 h",5 (>45 viable microorganisms Severely contaminated)
same,streak plate rating,"[2]; Set One, DDA 1800 ppm, 2nd inoculation 48 h",5 (>45 viable microorganisms Severely contaminated)
same,streak plate rating,"[2]; Set One, DDA 1800 ppm, 3rd inoculation 24 h",5 (>45 viable microorganisms Severely contaminated)
same,streak plate rating,"[2]; Set One, DDA 1800 ppm, 3rd inoculation 48 h",5 (>45 viable microorganisms Severely contaminated)
same,streak plate rating,"[2]; Set One, DDA 1800 ppm, 3rd inoculation 72 h",5 (>45 viable microorganisms Severely contaminated)
same,streak plate rating,"[2]; Set Two, DDA alone, ppm not given, 1st inoculation 24 h",5 (>45 viable microorganisms Severely contaminated)
same,streak plate rating,"[2]; Set Two, DDA alone, ppm not given, 1st inoculation 48 h",5 (>45 viable microorganisms Severely contaminated)
same,streak plate rating,"[2]; Set Two, DDA alone, ppm not given, 1st inoculation 72 h",5 (>45 viable microorganisms Severely contaminated)
same,streak plate rating,"[2]; Set Two, DDA alone, ppm not given, 2nd inoculation 24 h",5 (>45 viable microorganisms Severely contaminated)
same,streak plate rating,"[2]; Set Two, DDA alone, ppm not given, 2nd inoculation 48 h",5 (>45 viable microorganisms Severely contaminated)
same,streak plate rating,"[2]; Set Two, DDA alone, ppm not given, 2nd inoculation 72 h",5 (>45 viable microorganisms Severely contaminated)
same,streak plate rating,"[2]; Set Two, DDA alone, ppm not given, 3rd inoculation 24 h",5 (>45 viable microorganisms Severely contaminated)
same,streak plate rating,"[2]; Set Two, DDA alone, ppm not given, 3rd inoculation 48 h",5 (>45 viable microorganisms Severely contaminated)
same,streak plate rating,"[2]; Set Two, DDA alone, ppm not given, 3rd inoculation 72 h",5 (>45 viable microorganisms Severely contaminated)
"CCCCCCCCCCCCN1CCOCC1 [DDM, 4-Dodecylmorpholine]",streak plate rating,"[2]; Set Three, DDM 1200 ppm, 1st inoculation 24 h",5 (>45 viable microorganisms Severely contaminated)
same,streak plate rating,"[2]; Set Three, DDM 1200 ppm, 1st inoculation 48 h",5 (>45 viable microorganisms Severely contaminated)
same,streak plate rating,"[2]; Set Three, DDM 1200 ppm, 1st inoculation 72 h",5 (>45 viable microorganisms Severely contaminated)
same,streak plate rating,"[2]; Set Three, DDM 1200 ppm, 2nd inoculation 24 h",5 (>45 viable microorganisms Severely contaminated)
same,streak plate rating,"[2]; Set Three, DDM 1200 ppm, 2nd inoculation 48 h",5 (>45 viable microorganisms Severely contaminated)
same,streak plate rating,"[2]; Set Three, DDM 1200 ppm, 2nd inoculation 72 h",5 (>45 viable microorganisms Severely contaminated)
same,streak plate rating,"[2]; Set Three, DDM 1200 ppm, 3rd inoculation 24 h",5 (>45 viable microorganisms Severely contaminated)
same,streak plate rating,"[2]; Set Three, DDM 1200 ppm, 3rd inoculation 48 h",5 (>45 viable microorganisms Severely contaminated)
same,streak plate rating,"[2]; Set Three, DDM 1200 ppm, 3rd inoculation 72 h",5 (>45 viable microorganisms Severely contaminated)
"CCCCCCCC[N+](C)(C)[O-] [DMOA Oxide, N,N-dimethyloctylamine-n-oxide]",MIC,"Aureobasidium pullulans; Aureobasidium pullulans, read-out: Minimum Inhibitory Concentration",500 µg/mL
same,MIC,"Staphylococcus aureus; Staphylococcus aureus, read-out: Minimum Inhibitory Concentration",250 µg/mL
same,MIC,"Candida albicans; Candida albicans, read-out: Minimum Inhibitory Concentration",375 µg/mL
same,MIC,"Aspergillus brasiliensis; Aspergillus brasiliensis, read-out: Minimum Inhibitory Concentration",500 µg/mL
same,Minimum Inhibitory Concentration,Aspergillus brasiliensis,500 ppm
same,MIC,"Escherichia coli; Escherichia coli, read-out: Minimum Inhibitory Concentration",750 µg/mL
"CCCCCCCCCCCCCCCCCCN(C)C [DMODA, N,N-Dimethyloctadecylamine]",biocide enhancing effect on zinc pyrithione,[1],enhance the effectiveness of the zinc pyrithione
same,MIC,[1],> 640 µg/mL
